Reference: patent publication US10786505B2, “Administration of NEDD8-activating enzyme inhibitor and chemotherapeutic agents” (Millennium Pharmaceuticals, Inc., priority 2013, dated 2020)

What was measured:
Assay type in all cases: in vivo, mice
NCI-H69 xenograft model = test: Combination of cisplatin and MLN4924 in NCI-H69 xenograft model
Protocol: NCI-H69 or NCI-H82 small cell lung tumor fragments (30- to 40-mg) are implanted into the subcutaneous space in the area of the right flank of NCr nu/nu mice (7-10 weeks, Charles River Laboratories, Inc, Frederick Md. or Wilmington, Mass.) using a 12-gauge trocar.
(§1) Tumors are measured twice weekly using a vernier caliper. Tumor volumes are calculated using standard procedures (0.5×(length×width^2)). […] Tumor size and body weight are measured approximately twice a week for the duration of the study. Mice are euthanized when their tumor volume reached 10% of their body weight, or when the average tumor volume of a treatment or control group reached approximately 2000 mm^3. Tumor growth continued to be monitored after the dosing period in some studies. Average tumor volume is reported as a function of time for selected groups of selected studies in Figures A, B, and C.
(§2) Measurements from day 0 to 18, 21 or 22 are analyzed as specified in Tables 4-9. All tumor volumes have a value of 1 added to them before log10 transformation. For each animal, the log tumor volume at day 0 is subtracted from the log tumor volume on the subsequent days. This difference vs. time is used to calculate an area under the curve (AUC) for each animal using the trapezoid rule. […] The synergy score for the combination of agents A and B is defined as 100*(mean(AUCAB)−mean(AUCA)−mean(AUCB)+mean(AUCctl))/mean(AUCctl): where AUCAB, AUCA, AUCB, and AUCctl are the AUC values for animals in the combination group, the A group, the B group, and the control group, respectively. The standard error of the synergy score is computed based on the variation in the AUC values among the animals. […] If the P-value is above 0.05, then the combination is considered to be additive. If the P-value is below 0.05, and the synergy score is less than zero, then the combination is considered to be synergistic. […] Otherwise, the combination is classified as antagonistic.

[1] = system: PHTX02B breast xenograft model; test: Combination of docetaxel and MLN4924 in PHTX02B xenograft model; conditions: for average tumor volume day 21: PHTX02B xenograft
Source text: The PHTX02B breast xenograft model was established from a patient-derived tumor collected during surgery from a person with invasive ductal carcinoma classified as triple negative breast cancer (ER−/PR−/Her2−) by IHC. PHTX02B tumor fragments (approximately 2×2×3 mm^3) are implanted into the subcutaneous space in the right dorsal flank of female SCID-NOD mice (age 5-7 weeks, Jackson Laboratory, Bar Harbor, Me.) using a 13-gauge trocar.
(§3) Docetaxel (Henry Schein, Inc., Pittsburgh Pa., Qilu Pharmaceutical Co., Ltd., Jinan, Shandong, China, and Sanofi-Aventis) is formulated in 0.9% saline and administered by intravenous injection (IV) once weekly (QW) at 5 mg/kg or 10 mg/kg.
as §1, §2

LU1143 xenograft model = test: Combination of docetaxel or carboplatin and MLN4924 in LU1143 xenograft model; conditions: 45 mg/kg MLN4924 BID SC
Protocol: as §3
(§4) Carboplatin (CARBOplatin Injection, Hospira, Inc., Qilu Pharmaceutical Co., Ltd. Jinan, Shandong, China, and Teva Gry-Pharma GmbH, Ulm, Germany) is formulated in 0.9% saline and administered by IP injection once weekly (QW) at 50 mg/kg. The once weekly schedule is also described as every 7 days (Q7D).
as §1
Measurements from day 0 to 18, 21 or 22 are analyzed as specified in Tables 4-9. All tumor volumes have a value of 1 added to them before log10 transformation. For each animal, the log tumor volume at day 0 is subtracted from the log tumor volume on the subsequent days. This difference vs. time is used to calculate an area under the curve (AUC) for each animal using the trapezoid rule. […] The synergy score for the combination of agents A and B is defined as 100*(mean(AUCAB)−mean(AUCA)−mean(AUCB)+mean(AUCctl))/mean(AUCctl): where AUCAB, AUCA, AUCB, and AUCctl are the AUC values for animals in the combination group, the A group, the B group, and the control group, respectively. The standard error of the synergy score is computed based on the variation in the AUC values among the animals. […] If the P-value is above 0.05, then the combination is considered to be additive. […]

LXFE409 xenograft model = test: Combination of docetaxel or carboplatin and MLN4924 in LXFE409 xenograft model; conditions: for average tumor volume day 21: LXFE409 xenograft
Protocol: LXFE409 squamous non small cell lung cancer tumor fragments are implanted into the subcutaneous space in the flank of female NMRI nu/nu mice (5-7 weeks, Janvier Labs, Saint Berthevin, France).
as §3, §4, §1, §2

Question: How did the “average tumor volume day 22” value (NCI-H69 xenograft model; 45 mg/kg MLN4924 BID Q3Dx2/week SC) turn out when `NS(=O)(=O)OC[C@@H]1C[C@@H](n2ccc3c(N[C@H]4CCc5ccccc54)ncnc32)C[C@@H]1O` [MLN4924, ((1S,2S,4R)-4-(4-((1S)-2,3-dihydro-1H-inden-1-ylamino)-7H-pyrrolo[2,3-d]-pyrimidin-7-yl)-2-hydroxycyclopentyl)methyl sulfamate] was run?
Answer: 438.5 mm^3

Question: What about the “average tumor volume day 22” value (NCI-H69 xenograft model; 60 mg/kg MLN4924 BID Q2Dx3/week SC) of the same compound?
Answer: 475.4 mm^3

Question: What about the “tumor growth during the treatment period (in words)” value ([1]; PHTX02B breast xenograft, FIG. 1, MLN4924 SC 60 mg/kg BID 5 days on/5 days off, docetaxel 5 mg/kg IV QW, single agents or their combination) of the same compound?
Answer: inhibited tumor growth compared to the control vehicle group

Question: What about the “average tumor volume day 21” value ([1]; 30 mg/kg MLN4924 BID 5 on/5 off SC) of the same compound?
Answer: 1110.9 mm^3

Question: And the “average tumor volume day 21” value ([1]; 30 mg/kg MLN4924 BID SC)?
Answer: 894.4 mm^3

Question: What about the “average tumor volume day 21” value ([1]; 60 mg/kg MLN4924 BID 5 on/5 off SC) of the same compound?
Answer: 532.2 mm^3

Question: And the “average tumor volume day 21” value (LU1143 xenograft model)?
Answer: 801.2 mm^3

Question: What about the “tumor course after the treatment period, to end of study on day 95 (in words)” value (LXFE409 xenograft model; LXFE409 sqNSCLC model, FIG. 4, MLN4924 120 mg/kg SC Q2Dx3/week for 3 weeks, docetaxel 10 mg/kg IV QW for 3 weeks, single agents or combination) of the same compound?
Answer: regrew after the treatment period ended

Question: And the “average tumor volume day 21” value (LXFE409 xenograft model; 90 mg/kg MLN4924 Q2Dx3/week SC)?
Answer: 707.5 mm^3

Question: And the “average tumor volume day 21” value (LXFE409 xenograft model; 120 mg/kg MLN4924 Q2Dx3/week SC)?
Answer: 167.1 mm^3
